In patent US6410557B1, “Dry skin remedies” (Daiichi Pharmaceutical Col, Ltd., priority 1999, dated 2002):
Read-outs that look alike come from different tables or passages of the source.

Key:
[1] = test system: Rat Foot Skin; test: Promoting action on the secretion of sweat in rat foot skin (starch-iodine reaction); format: in vivo
Procedure: A pharmacological activity test was carried out using 6 male Wister rats (body weight 199-238 g) in one group. After fasting for 1 day, rats were anesthetized by 50 mg/kg of sodium pentobarbital which was intraperitoneally administered, and an endotracheal tube was inserted to maintain the airway.
The soles of the right and left feet were cleaned with 70% ethanol, then 95% ethanol containing 2% of iodine was applied and allowed to dry. Castor oil containing 50% corn starch was coated to the soles of both feet, 5 minutes later a solvent alone or 1,3,10, and 30 mg/kg of cis-2-methylspiro(1,3-oxathiolane-5,3′)quinuclidine hydrochloride were administered intravenously.

[2] = test system: Humans
Procedure: A multi-facility double blind comparison study was carried out for examination of perspiration promoting action on human, by preparing capsules containing 30 or 60 mg of cis-2-methylspiro(1,3-oxathiolane-5,3′)quinuclidine hydrochloride. 75 Americans (69 White, 1 Black, and 5 Hispanic subjects) were divided into 3 groups randomly. Each group received either one placebo capsule (0 mg), one 30 mg capsule, or one 60 mg capsule orally administered three times a day for 6 weeks. The increase of perspiration in each group was tested.

[3] = 30 mg capsule orally × 3/day for 6 weeks, 25 subjects
[4] = 60 mg capsule orally × 3/day for 6 weeks, 27 subjects

## CC1OC2(CS1)CN1CCC2CC1.Cl (stereo not drawn) [cis-2-methylspiro(1,3-oxathiolane-5,3′)quinuclidine hydrochloride]
[1]; anesthetized male Wister rats, 1, 3, 10 and 30 mg/kg intravenously, FIG. 1
  sweat secretion on the soles of both feet (number of colored points, degree of perspiration): promoted depending on the dose level
[2]; [3]
  Number of Subjects Showing perspiration: 4
  Number of Subjects Showing perspiration (%): 16.0%
[2]; [4]
  Number of Subjects Showing perspiration: 13
  Number of Subjects Showing perspiration (%): 48.1%
[2]; capsules, oral, three times a day for 6 weeks
  sweat secretion of human: remarkably promoted

## CN1[C@@H]2CC[C@H]1C[C@@H](OC(=O)C(CO)c1ccccc1)C2 (stereo partly shown) [atropine, reference compound]
[1]; rat soles of feet
  effect on the sweat secretion promoting activity of the quinuclidine hydrochloride: blocks this activity
